Reference: patent US9295706B2, “Phytotherapic pharmaceutical combination of Lippia salviifolia and Lippia sidoides, phytotherapic pharmaceutical composition, process for preparing a phytotherapic pharmaceutical composition and veterinary uses thereof” (priority 2010, dated 2016)

Tests used:
Type in all cases: cell-based
[1] = test system: Candida albicans; experiment: Minimum Inhibitory Concentration (MIC) against Candida albicans; details: Candida albicans strain
[2] = test system: Staphylococcus aureus; experiment: Minimum Inhibitory Concentration (MIC) against Staphylococcus aureus; details: Staphylococcus aureus strain
[3] = test system: Staphylococcus epidermidis; experiment: Minimum Inhibitory Concentration (MIC) against Staphylococcus epidermidis; details: Staphylococcus epidermidis strain
[4] = test system: Escherichia coli; experiment: Minimum Inhibitory Concentration (MIC) against Escherichia coli; details: Escherichia coli strain
[5] = test system: Pseudomonas aeruginosa; experiment: Minimum Inhibitory Concentration (MIC) against Pseudomonas aeruginosa; details: Pseudomonas aeruginosa strain

Molecule	MIC Values [1]	MIC Values [2]	MIC Values [3]	MIC Values [4]	MIC Values [5]
C[C@@H]1[C@H](O)[C@@H](C)/C=C/C=C/C=C/C=C/C=C/C=C/C=C/[C@H](O[C@@H]2O[C@H](C)[C@@H](O)[C@H](N)[C@@H]2O)C[C@@H]2O[C@](O)(C[C@@H](O)C[C@@H](O)[C@H](O)CC[C@@H](O)C[C@@H](O)CC(=O)O[C@H]1C)C[C@H](O)[C@H]2C(=O)O [Amphotericin B]	3.15 (b) μg/ml				
Gemtamicin		75 (a) μg/ml	150 (a) μg/ml	75 (a) μg/ml	37 (a) μg/ml
